Data from patent US12577267B2, “Pyrimidine compounds for use as MAP4K1 inhibitors” (GLENMARK SPECIALITY S.A., priority 2021, dated 2026).
Counter-ions that a name gives are not always drawn. Like-named read-outs stand apart in the source and are kept apart here.

Key:
[1] = biological target: MAP4K-1 enzyme (Homo sapiens, UniProt Q92918); experiment: FRET one step binding assay (tracer displacement)
Method in brief: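 TR-FRET tracer-displacement binding with 5 nM GST-tagged MAP4K-1 and 2 nM Eu-anti-GST antibody in 50 mM HEPES pH 7.5, 10 mM MgCl2, 1 mM EGTA, 0.01% Brij-35, 3% DMSO final. Compound pre-incubated 15 min on ice, then 1 h at room temperature after tracer addition. IC50 from nonlinear regression of percent-of-control dose-response.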

[2] = tested on: CT26 tumor; experiment: Anti-tumor efficacy on a syngeneic mouse colon tumor model of CT26; assay type: in vivo, BALB/c mice
Method: Evaluation of Anti-Tumor Efficacy of Example 2 and Example 30 on a Syngeneic Mouse Colon Tumor Model of CT26.
Healthy female BALB/c mice (7 to 9 weeks old and 15 to […]) were obtained from Glenmark animal facility. Animals were group housed in polypropylene cages at a controlled temperature of 20-22° C. with a light/dark cycle of 12/12 hours. They were maintained on an ad lib standard mouse pellet diet and water and all animal experiments were performed as per protocols approved by the Institutional Animal Ethics Committee (IAEC).
CT-26 cell line was obtained from American type culture (ATCC® CRL-2638™). Cells were revived in T-flask (passage 5) with complete RPMI-1640 media and incubated at 37° C. in 5% CO2, 80% relative humidity. Cells were re-suspended, pooled and split into 1:10 ratio per flask, maintained for 3 passages and passage 8 was used for cell inoculation into animals.
The right flank region of mice was shaved by electronic shaver. Required number of CT26 cells (10 million per mL of serum free media) received on ice from cell culture lab. The mice were anesthetized by isoflurane with O2 (oxygen flow meter to 1-2 liter/min and turn isoflurane vaporizer dial to 2-3%). The cells were inoculated into the right flank region of mice at cell concentration of 1 million cells/100 μL/mouse. The inoculated mice were housed in the animal room with daily observation for any undue clinical signs.
On day 10 after cell inoculation, mice were randomized based on tumor volume and grouped into different treatment groups. The mice with tumor volume range of 57 mm^3 to 119 mm^3 were included in efficacy study. Tumor volume was measured using digital vernier caliper.
The volume calculations were obtained using the formula V(mm^3)=[L×(W×W)]×0.52 • V is tumor volume, L is tumor length and W is tumor width
Compound Preparation and Administration
0.5% v/v Tween 80 and 0.5% w/v Methyl Cellulose in distilled water was used as vehicle for oral formulation. Example 2 and Example 30 were weighed and a stock suspension of 50 mg/kg/10 mL was prepared in a mortar and pestle by adding Tween 80 (0.5% v/v), Methyl cellulose (MC, 0.5% w/v). […] The body weights were recorded on daily basis and the dosing time was maintained throughout the study. […]
Tumor volume was measured in a blinded manner throughout the study. […] The % TGI was calculated by following the formula: [1−{(Tt−T0)/(Ct−C0)}]×100. • Tt=Tumor volume of treatment group on day of tumor volume • T0=Tumor volume of treatment group on day of randomization • Ct=Tumor volume of vehicle control group on day of tumor volume • C0=Tumor volume of control group on day of randomization Sacrifice Plan […]
Tumor volume data was statistically analyzed using Two-way ANOVA followed by Bonferroni's Multiple Comparison Test. […]

MAP4K-1 enzyme, sequence (Q92918 whole entry): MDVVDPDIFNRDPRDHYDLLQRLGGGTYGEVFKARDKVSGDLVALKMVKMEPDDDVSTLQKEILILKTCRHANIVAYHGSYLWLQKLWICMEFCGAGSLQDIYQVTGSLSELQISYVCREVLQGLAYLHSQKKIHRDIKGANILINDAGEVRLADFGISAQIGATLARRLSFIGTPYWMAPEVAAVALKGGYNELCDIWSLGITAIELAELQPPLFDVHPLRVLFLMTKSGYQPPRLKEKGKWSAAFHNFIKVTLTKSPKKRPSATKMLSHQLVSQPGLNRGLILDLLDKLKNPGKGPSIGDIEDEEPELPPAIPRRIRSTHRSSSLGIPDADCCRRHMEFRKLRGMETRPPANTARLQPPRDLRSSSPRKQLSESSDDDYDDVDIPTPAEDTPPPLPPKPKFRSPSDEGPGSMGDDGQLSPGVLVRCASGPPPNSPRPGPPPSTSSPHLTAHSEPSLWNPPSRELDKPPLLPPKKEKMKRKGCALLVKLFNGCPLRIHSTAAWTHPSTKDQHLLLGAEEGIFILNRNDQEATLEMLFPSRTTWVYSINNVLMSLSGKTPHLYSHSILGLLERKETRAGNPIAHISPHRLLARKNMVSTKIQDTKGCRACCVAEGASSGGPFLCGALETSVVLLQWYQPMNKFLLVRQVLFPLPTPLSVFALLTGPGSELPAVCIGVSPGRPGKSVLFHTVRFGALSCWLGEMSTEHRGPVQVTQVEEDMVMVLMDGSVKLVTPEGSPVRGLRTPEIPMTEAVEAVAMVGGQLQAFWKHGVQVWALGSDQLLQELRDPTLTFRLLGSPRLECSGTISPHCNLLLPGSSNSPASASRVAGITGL

COc1cc2c(cc1Nc1ncc(Cl)c(Nc3ccc(OS(=O)(=O)F)cc3P(C)(C)=O)n1)CN(C)CC2 [Example 2, 4-((5-chloro-2-((6-methoxy-2-methyl-1,2,3,4-tetrahydroisoquinolin-7-yl)amino)pyrimidin-4-yl)amino)-3-(dimethylphosphoryl)phenyl sulfofluoridate dihydrochloride]
inhibition at 1 µM ([1]; 1 μM compound): 86% | inhibition at 10 µM ([1]; 10 μM compound): 82.1% | IC50 ([1]; IC50 (nM)): < 50 nM | Tumor growth inhibition (TGI) ([2]; 10 mg/kg p.o. QD, day 24, vs vehicle group): 40% | Tumor growth inhibition (TGI) ([2]; 50 mg/kg p.o. QD, day 24, vs vehicle group): 61%

COc1cc2c(cc1Nc1ncc(Cl)c(Nc3ccc(OS(=O)(=O)F)cc3P(C)(C)=O)n1)C(C)N(C)CC2 (single isomer, unassigned; isomer 2) [Example 30, 4-((5-Chloro-2-((6-methoxy-1,2-dimethyl-1,2,3,4-tetrahydroisoquinolin-7-yl)amino)pyrimidin-4-yl)amino)-3-(dimethylphosphoryl)phenyl sulfofluoridate dihydrochloride (Isomer 2)]
IC50 [1]: < 50 nM | % Inhibition at 1 μM ([1]; 1 μM compound, 1 µM): 79.12% | % Inhibition at 10 μM ([1]; 10 μM compound, 10 µM): 82.70% | Tumor growth inhibition (TGI) ([2]; 10 mg/kg p.o. QD, day 25, vs vehicle group): 37% | Tumor growth inhibition (TGI) ([2]; 50 mg/kg p.o. QD, day 25, vs vehicle group): 62%
